Measurements from patent US10053417B2, “Neprilysin inhibitors” (THERAVANCE BIOPHARMA R&D IP, LLC, priority 2013, dated 2018).

Molecular target: T1, human NEP (Homo sapiens, UniProt P08473)
T1 construct: purchased R&D Systems, Minneapolis, Minn; 1182-ZN
Assay: In vitro enzyme inhibition assay, inhibitor potency at human NEP (Assay 1)
Type: biochemical
Conditions: recombinant human NEP; fluorogenic peptide substrate 10 μM; 37° C.; values given as ranges
Outline: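 Recombinant human NEP pre-incubated 30 min at 37 °C with compound ([…]), then 10 μM Mca-D-Arg-Arg-Leu-Dap-(Dnp)-OH added in 50 mM HEPES pH 7.5, 100 mM NaCl, 0.01% Tween-20, 10 μM ZnSO4; stopped after 20 min with acetic acid. Fluorescence ex 320/em 405 nm; Ki from nonlinear regression, reported as pKi.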

T1 sequence (P08473 52-750 limits assumed): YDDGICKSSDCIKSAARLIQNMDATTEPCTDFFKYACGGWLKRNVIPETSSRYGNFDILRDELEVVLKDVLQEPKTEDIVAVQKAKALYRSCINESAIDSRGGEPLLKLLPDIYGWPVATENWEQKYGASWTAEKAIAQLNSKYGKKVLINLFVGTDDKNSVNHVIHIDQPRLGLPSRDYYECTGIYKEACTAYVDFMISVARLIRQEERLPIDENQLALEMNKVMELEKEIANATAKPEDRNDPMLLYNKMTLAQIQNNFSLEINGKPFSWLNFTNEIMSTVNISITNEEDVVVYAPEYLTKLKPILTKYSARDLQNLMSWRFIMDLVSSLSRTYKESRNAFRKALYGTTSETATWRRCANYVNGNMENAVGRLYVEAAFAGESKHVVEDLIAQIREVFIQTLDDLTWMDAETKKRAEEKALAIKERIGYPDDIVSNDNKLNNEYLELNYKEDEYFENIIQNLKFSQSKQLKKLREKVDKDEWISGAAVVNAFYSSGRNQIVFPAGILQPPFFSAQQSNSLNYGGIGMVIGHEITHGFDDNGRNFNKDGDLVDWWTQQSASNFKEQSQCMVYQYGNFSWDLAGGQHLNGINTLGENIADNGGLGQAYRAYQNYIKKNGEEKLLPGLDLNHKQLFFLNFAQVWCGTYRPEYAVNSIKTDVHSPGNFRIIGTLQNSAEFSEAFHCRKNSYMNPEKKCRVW

SMILES	Ki [nM]
NC(=O)C1CCN(C(=O)C(=O)N[C@H](Cc2ccc(-c3cccc(Cl)c3)cc2)C[C@@H](O)C(=O)O)C1 (stereo partly drawn) [Example 4-17, (2R,4R)-4-[2-(3-Carbamoylpyrrolidin-1-yl)-2-oxo-acetylamino]-5-(3′-chloro-biphenyl-4-yl)-2-hydroxypentanoic acid]	10 to 31.6
O=C(N[C@H](Cc1ccc(-c2cccc(Cl)c2)cc1)C[C@@H](O)C(=O)O)C(=O)N1CC(F)(F)C1 [Example 4-14, (2R,4R)-5-(3′-Chlorobiphenyl-4-yl)-4-[2-(3,3-difluoroazetidin-1-yl)-2-oxo-acetylamino]-2-hydroxypentanoic acid]	10 to 31.6
O=C(CO)N[C@H](Cc1ccc(-c2cccc(Cl)c2)cc1)C[C@@H](O)C(=O)O [Example 10-1, (2R,4R)-5-(3′-Chlorobiphenyl-4-yl)-2-hydroxy-4-(2-hydroxyacetylamino)-pentanoic acid]	1 to 10
O=C(N[C@H](Cc1ccc(-c2cccc(Cl)c2)cc1)C[C@@H](O)C(=O)O)C(=O)N1CC(O)C1 [Example 4-13, (2R,4R)-5-(3′-Chlorobiphenyl-4-yl)-2-hydroxy-4-[2-(3-hydroxyazetidin-1-yl)-2-oxo-acetylamino]pentanoic acid]	1 to 10
O=C(COc1cccnc1)N[C@H](Cc1ccc(-c2cccc(Cl)c2)cc1)C[C@@H](O)C(=O)O [Example 10-5, (2R,4R)-5-(3′-Chlorobiphenyl-4-yl)-2-hydroxy-4-[2-(pyridin-3-yloxy)-acetylamino]-pentanoic acid]	1 to 10
O=C(N[C@H](Cc1ccc(-c2cccc(Cl)c2)cc1)C[C@@H](O)C(=O)O)C(=O)N1CCC(c2ccncc2)CC1 [Example 4-23, (2R,4R)-5-(3′-Chlorobiphenyl-4-yl)-2-hydroxy-4-[2-oxo-2-(3,4,5,6-tetrahydro-2H-[4,4′]bipyridinyl-1-yl)-acetylamino]pentanoic acid]	10 to 31.6
O=C(NNc1cc(O)ncn1)C(=O)N[C@H](Cc1ccc(-c2cccc(Cl)c2)cc1)C[C@@H](O)C(=O)O [Example 6-5, (2R,4R)-5-(3′-Chlorobiphenyl-4-yl)-2-hydroxy-4-{[N′-(6-hydroxy-pyrimidin-4-yl)-hydrazinooxalyl]amino}-pentanoic acid]	1 to 10
O=C(N[C@H](Cc1ccc(-c2cccc(Cl)c2)cc1)C[C@@H](O)C(=O)O)C(=O)N1CCC(C(=O)O)CC1 [Example 4-27, 1-[(1R,3R)-3-Carboxy-1-(3′-chlorobiphenyl-4-ylmethyl)-3-hydroxypropyl-aminooxalyl]-piperidine-4-carboxylic acid]	1 to 10
O=C(Nc1ccc(Br)nc1)C(=O)N[C@H](Cc1ccc(-c2cccc(Cl)c2)cc1)C[C@@H](O)C(=O)O [Example 4-2, (2R,4R)-4-[(6-Bromopyridin-3-ylaminooxalyl)amino]-5-(3′-chlorobiphenyl-4-yl)-2-hydroxypentanoic acid]	10 to 31.6
CCOCCN1CCN(C(=O)C(=O)N[C@H](Cc2ccc(-c3cccc(Cl)c3)cc2)C[C@@H](O)C(=O)O)CC1 [Example 4-38, (2R,4R)-5-(3′-Chlorobiphenyl-4-yl)-4-{2-[4-(2-ethoxy-ethyl)-piperazin-1-yl]-2-oxo-acetylamino}-2-hydroxypentanoic acid]	10 to 31.6
CNNC(=O)C(=O)N[C@H](Cc1ccc(-c2cccc(Cl)c2)cc1)C[C@@H](O)C(=O)O [Example 6-1, (2R,4R)-5-(3′-Chlorobiphenyl-4-yl)-2-hydroxy-4-[(N′-methylhydrazinooxalyl)-amino]pentanoic acid]	10 to 31.6
O=C(NNc1ccccc1)C(=O)N[C@H](Cc1ccc(-c2cccc(Cl)c2)cc1)C[C@@H](O)C(=O)O [Example 6-17, (2R,4R)-5-(3′-Chlorobiphenyl-4-yl)-2-hydroxy-4-[(N′-phenylhydrazinooxalyl)-amino]pentanoic acid]	1 to 10
O=C(N[C@H](Cc1ccc(-c2cccc(Cl)c2)cc1)C[C@@H](O)C(=O)O)C(=O)N1CCC(O)CC1 [Example 4-18, (2R,4R)-5-(3′-Chlorobiphenyl-4-yl)-2-hydroxy-4-[2-(4-hydroxy-piperidin-1-yl)-2-oxo-acetylamino]pentanoic acid]	≤ 1
COCC(=O)N[C@H](Cc1ccc(-c2cccc(Cl)c2)cc1)C[C@@H](O)C(=O)O [Example 10-2, (2R,4R)-5-(3′-Chlorobiphenyl-4-yl)-2-hydroxy-4-(2-methoxyacetylamino)-pentanoic acid]	1 to 10
COc1ccc(NNC(=O)C(=O)N[C@H](Cc2ccc(-c3cccc(Cl)c3)cc2)C[C@@H](O)C(=O)O)cc1 [Example 6-15, (2R,4R)-5-(3′-Chlorobiphenyl-4-yl)-2-hydroxy-4-{[N′-(4-methoxyphenyl)-hydrazinooxalyl]amino}pentanoic acid]	1 to 10
